Assay results published in paper PMC12434668 (Journal of Medicinal Chemistry, 2025).
≈ marks a conversion by molar mass, not a printed value. Where “and” joins values, the source holds several entries; their conditions need not be identical. Equal entries are not always repeated. Where two headings read alike, the source gives them in different places.

Experiments:
[1] = parameters: method as in earlier work; conditions: ref 66 (number lost in text); cited from earlier work
[2] = test system: A427 cell line-derived NSCLC xenograft; test: Subcutaneous A427 NSCLC xenograft efficacy study; format: in vivo; conditions: for tumor regressions (day 28): animals regressing / group
Excerpt: Female BomTac:NMRI-Foxn1nu mice and CB17/Icr-Prkdc(scid)/IcrCrl and were obtained from Taconic Denmark at an age of 6–8 weeks. After arrival of the local animal facility at Boehringer Ingelheim RCV GmbH & Co KG (institutional approval–Amt der Wiener Landesregierung, Magistratsabteilung 58, GZ: 135147/2013/4) mice were allowed to adjust to housing conditions at least for 5 days before the start of the experiment. Mice were group-housed under pathogen-free and controlled environmental conditions and handled according to the institutional, governmental and European Union guidelines (Austrian Animal Protection Laws, GV-SOLAS and FELASA guidelines). Animal studies were approved by the internal ethics committee and the local governmental committee (Amt der Wiener Landesregierung, Magistratsabteilung 58). To establish subcutaneous tumors mice were injected with 5 × 10^6 A427 cells in Matrigel (CB17/Icr-Prkdc(scid)/IcrCrl. Tumor diameters were measured with a caliper three times a week. The volume of each tumor [in mm^3] was calculated according to the formula “tumor volume = length*diameter^2*π/6.” To monitor side effects of treatment, mice were inspected daily for abnormalities and body weight was determined. Animals were sacrificed when the tumors reached a size of 1500 mm^3. Mice were dispatched randomly into treatment groups when the tumor size was 160 mm^3. Tumors were reported as regressing when the tumor volume at a given day was below the tumor volume at treatment start.

[3] = Mouse pharmacokinetic analyses (i.v. and oral); format: in vivo; conditions: plasma
Description: For PK analysis, mice were administered intravenously or orally with compound formulated in 10% ethanol and 10% Cremophor EL. Compound 13 dosing was also screened with 20% Phosphal IPG, 20% Phosphal MCT, 10% HP-β-CD, and 40% HP-β-CD. Plasma samples were obtained at predefined time points and compound concentrations in plasma were measured by quantitative HPLC–MS/MS using an internal standard. Calibration and quality control samples were prepared using blank plasma from untreated animals. Samples were precipitated with acetonitrile and injected into a HPLC system (Agilent 1200). Separation was performed by gradients of 5 mmol/L ammonium acetate pH 5.0 and acetonitrile with 0.1% formic acid on a Luna C8 reversed-phase column with 2.5 μm particles (Phenomenex). The HPLC was interfaced by ESI operated in positive ionization mode to a triple quadrupole mass spectrometer (6500+ Triple Quad System, SCIEX) operated in multiple reaction monitoring mode. Chromatograms were analyzed with Analyst (SCIEX) and pharmacokinetic parameters were calculated by noncompartmental analysis using proprietary software.

[4] = test system: caspase 3/7 in H929 cells; test: Caspase 3/7 induction assay (Caspase-Glo), H929; format: cell-based; conditions: compound treatment for 3 h; for EC50: Homo sapiens, NCI-H929
Description: (§1) Cells were treated with a 10-point compound titration and incubated at 37 °C for 3 h.

[5] = Kinetic aqueous solubility; format: physicochemical
Bcl-2 = test: Selectivity for Mcl-1 over Bcl-2; format: binding
Bcl-xL = test: Selectivity for Mcl-1 over Bcl-xL; format: binding
K562 cells = test: In vitro proliferation counterscreen, Mcl-1 insensitive K562; format: cell-based; conditions: for GI50: Homo sapiens, Mcl-1 insensitive K562, top concentration tested 12.5 µM
Description: NCI-H929, A427, and K562 cell lines were obtained from ATCC.
(§2) Suspension cells were plated immediately before compound addition. Adherent cell lines were incubated overnight at 37 °C in a tissue culture incubator prior to compound addition. Compounds were added in triplicates using an HP D300e Digital Dispenser (Hewlett-Packard) or manually at the concentrations indicated and total volumes were normalized using DMSO backfill, with final DMSO concentration of 0.5%. Control wells were treated with DMSO only. Following incubation for 72 or 96 h, a Cell Titer-Glo assay was conducted following the manufacturer recommendations (Promega, G9243) and luminescence was measured using a Victor X5 (PerkinElmer) or a Cytation 3 (Biotek) plate reader. % Viability was defined as relative luminescence units (RLU) of each well divided by the RLU of cells on day 0.

Mcl-1 = molecular target: T1, Mcl-1 (Homo sapiens, UniProt Q07820); test: TR-FRET binding assay (FITC-Bak peptide competition)
T1 construct: Briefly, a previously reported construct was subcloned into an expression vector (pDEST-HisMBP); MBP (from vector pDEST-HisMBP); made in house; host or cells: Escherichia coli BL21 CodonPlus (DE3) RIL
Excerpt: Protein preparation was described previously. Briefly, a previously reported construct was subcloned into an expression vector (pDEST-HisMBP) expressed in Escherichia coli BL21 CodonPlus (DE3) RIL (Stratagene) and purified through nickel-column and size-exclusion chromatography sequentially.
Mixtures containing vehicle without compound served as a negative control, while mixtures containing no protein served as a positive control. […] Two or more repeats were obtained and average K i values are reported.

A427 cells = test: In vitro proliferation assay (CellTiter-Glo), A427; format: cell-based; conditions: Homo sapiens, A-427
Description: (§3) NCI-H929, A427, and K562 cell lines were obtained from ATCC. NCI-H929 cells were cultured in RPMI1640 (ATCC-formulated, Catalog No. 30-2001) + 10% fetal calf serum (FCS, GIBCO BRL, Cat. No. 26140) + 0.05 mM mercaptoethanol. A-427 cells were cultured in RPMI1640 (ATCC-formulated, Catalog No. 30-2001) + 10% fetal calf serum (FCS, GIBCO BRL, Cat. No. 26140). K562 cell lines were cultured in Iscove’s Modified Dulbecco Medium (Gibco-formulated, purchased from Thermo-Fisher, Cat. No. 12440-053) + 10% fetal bovine serum (FBS, Sigma-Aldrich, F2442). All cell lines were cultured at 37 °C with 5% CO2 in a humidified incubator and have been regularly tested negatively for mycoplasm contamination.
as §2, with “Cells were seeded at 750–1500 cells per well (depending on growth kinetics) in 384-well plates (Corning, Catalog No. 3707) or at 3000 cells per well in 96-well plates in the respective growth medium and allowed to settle overnight. Suspension cells” for “Suspension cells”, “day 0. Four parameter sigmoidal dose–response curves were generated and IC50 values were determined using XLFit (IDBS) software (eq 205) or in-house software. Drug combination experiments were performed in 96-well or 384-well format and drug synergy was determined using the BLISS model (PMID: 26171228).” for “day 0.”

[6] = test system: caspase 3/7 in A427 cells; test: Caspase 3/7 induction assay (Caspase-Glo), A427; format: cell-based; conditions: compound treatment for 3 h; for EC50: Homo sapiens, A-427
Description: as §1

NCI-H929 cells = test: In vitro proliferation assay (CellTiter-Glo), H929; format: cell-based; conditions: Homo sapiens
Description: as §3
as §2, with “Cells were seeded at 750–1500 cells per well (depending on growth kinetics) in 384-well plates (Corning, Catalog No. 3707) or at 3000 cells per well in 96-well plates in the respective growth medium and allowed to settle overnight. Suspension cells” for “Suspension cells”, “day 0. Four parameter sigmoidal dose–response curves were generated and IC50 values were determined using XLFit (IDBS) software (eq 205) or in-house software. Drug combination experiments were performed in 96-well or 384-well format and drug synergy was determined using the BLISS model (PMID: 26171228).” for “day 0.”

[7] = test system: caspase 3/7 in K562 cells; test: Caspase 3/7 induction assay (Caspase-Glo), K562; format: cell-based; conditions: compound treatment for 3 h; for EC50: Homo sapiens, K562
Description: as §1

[8] = aqueous medium at pH 6.8, pH 6.8
[9] = in the presence of 1% fetal bovine serum, average of at least n = 2, read-out: TRFRET, Mcl-1 Ki
[10] = A427 cell line, average of at least n = 2, triplicate
[11] = H929 cell line, average of at least n = 2, triplicate
[12] = iv, dosed at 20 mg/kg, read-out: i.v. mouse CL
[13] = iv, supplementary CSV, unit not given (Table 1: 20 mg/kg, 14 and 16 at 10 mg/kg), read-out: CL
[14] = supplementary CSV, unit inferred

T1 sequence (Q07820 whole entry): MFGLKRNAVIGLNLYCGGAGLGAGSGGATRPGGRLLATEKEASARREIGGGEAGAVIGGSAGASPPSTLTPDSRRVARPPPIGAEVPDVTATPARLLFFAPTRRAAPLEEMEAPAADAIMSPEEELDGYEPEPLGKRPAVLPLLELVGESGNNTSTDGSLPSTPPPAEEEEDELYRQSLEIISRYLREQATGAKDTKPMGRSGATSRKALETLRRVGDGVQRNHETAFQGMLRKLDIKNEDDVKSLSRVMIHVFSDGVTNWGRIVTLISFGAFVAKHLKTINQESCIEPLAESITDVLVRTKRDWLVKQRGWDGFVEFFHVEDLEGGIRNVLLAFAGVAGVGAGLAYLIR

EC50 [4] [nM]	Ki (Mcl-1; [9]) [nM]	EC50 [6] [nM]	EC50 [7] [nM]	clearance [3, 12] [mL/min/kg]	clearance [3, 13] [mL/min/kg]	Compound	H929 Caspase 3/7 maximum activity, fold over vehicle (FoV) [4]	solubility kinetic [5, 8] [µg/mL]	GI50 (K562 cells) [nM]	GI50 (A427 cells; [10]) [nM]	A427 Caspase 3/7 fold over vehicle (FoV) [6] [fold]	GI50 (NCI-H929 cells; [11]) [nM]	K562 Caspase 3/7 fold over vehicle (FoV) [7] [fold]	further results
						COc1c(OCC2CCOCC2)cc(N2C[C@@H](C)n3c(c(CCCOc4cc(C)c(Cl)c(C)c4)c4ccc(Cl)c(-c5c(C)nc(C)nc5C)c43)C2=O)c2c1cc(C(=O)O)n2C [Compound 1]								dog CL [1]: 5.2 mL/min/kg; tumor regressions (day 28) ([2]; 40 mg/kg q14d i.v.): 0/8; AUC ([3]; iv, 40 mg/kg q14d i.v., xenograft study, read-out: AUC): 198 µM·h
16	< 0.08	12	> 3120	5.7	5.7	COc1cc2c3c(cc(C(=O)O)n3CCCOCc3nn(C)cc3-c3c(Cl)ccc4c(CCCOc5cc(C)c(Cl)c(C)c5)c5n(c34)[C@H](C)CN2C5=O)c1C [Compound 17, (2^63^4 S a ,1^72^2 R a ,2^4 R)-2^7-Chloro-2^10-(3-(4-chloro-3,5-dimethylphenoxy)propyl)-1^5-methoxy-1^4,2^4,3^1-trimethyl-2^1-oxo-2^1,2^2,2^3,2^4-tetrahydro-1^1 H,3^1 H-5-oxa-2(2,6)-pyrazino[1,2-a]indola-1(7,1)-indola-3(4,3)-pyrazolacyclooctaphane-1^2-carboxylic Acid]	16 fold and 16 (16) fold		> 12500	32 ± 7	16	23 ± 5	1.3	solubility kinetic ([5]; aqueous medium, pH 6.8, pH 6.8): 39 µg/mL (≈ 49.7 µM); Ki (Mcl-1; supplementary CSV, unit inferred, read-out: Ki TRFRET): < 0.02 nM
9	0.08 ± 0.01	11	> 3120	6.6	6.6	COc1cc2c3c(cc(C(=O)O)n3CCCOCc3nn(C)c(C)c3-c3c(Cl)ccc4c(CCCOc5cc(C)c(Cl)c(C)c5)c5n(c34)[C@H](C)CN2C5=O)c1OC [Compound 10, (2^63^4 S a ,1^72^2 R a ,2^4 R)-2^7-Chloro-2^10-(3-(4-chloro-3,5-dimethylphenoxy)propyl)-1^4,1^5-dimethoxy-2^4,3^1,3^5-trimethyl-2^1-oxo-2^1,2^2,2^3,2^4-tetrahydro-1^1 H,3^1 H-5-oxa-2(2,6)-pyrazino[1,2-a]indola-1(7,1)-indola-3(4,3)-pyrazolacyclooctaphane-1^2-carboxylic Acid]	16 fold	2 (≈ 2.45 µM)	> 9700		13		1.4	GI50 (A427 cells; [14]): 48 nM; GI50 (NCI-H929 cells; [14]): 20 nM

Compound	EC50 [4] [nM]	Ki (Mcl-1; [9]) [nM]	EC50 [6] [nM]	EC50 [7] [nM]	clearance [3, 12] [mL/min/kg]	clearance [3, 13] [mL/min/kg]	H929 Caspase 3/7 maximum activity, fold over vehicle (FoV) [4]	solubility kinetic [5, 8] [µg/mL]	GI50 (K562 cells) [nM]	GI50 (A427 cells; [10]) [nM]	A427 Caspase 3/7 fold over vehicle (FoV) [6] [fold]	GI50 (NCI-H929 cells; [11]) [nM]	K562 Caspase 3/7 fold over vehicle (FoV) [7] [fold]	further results
COc1cc2c3c(cc(C(=O)O)n3CCCOCc3nn(C)cc3-c3c(Cl)ccc4c(CCCOc5cc(C)c(Cl)c(C)c5)c5n(c34)[C@H](C)CN2C5=O)c1OC [Compound 13, (2^63^4 S a ,1^72^2 R a ,2^4 R)-2^7-Chloro-2^10-(3-(4-chloro-3,5-dimethylphenoxy)propyl)-1^4,1^5-dimethoxy-2^4,3^1-dimethyl-2^1-oxo-2^1,2^2,2^3,2^4-tetrahydro-1^1 H,3^1 H-5-oxa-2(2,6)-pyrazino[1,2-a]indola-1(7,1)-indola-3(4,3)-pyrazolacyclooctaphane-1^2-carboxylic Acid]	13	< 0.08	7.8	> 3120	7.4	7.4	16 fold	85 (≈ 106 µM)	> 12500	25 ± 9	16	14 ± 4	1.3	selectivity for Mcl-1 over Bcl-2 (Bcl-2): > 50,000 fold; selectivity for Mcl-1 over Bcl-xL (Bcl-xL): > 50,000 fold; selectivity for Mcl-1-sensitive cell lines over the K562 control (K562 cells; GI50 ratio): > 900 fold; tolerability, body weight ([2]; 60 mg/kg q14d i.v.): body weight behaved similarly to the vehicle control cohort; tumor regressions (day 28) ([2]; 60 mg/kg q14d i.v.): 7/8; tumor outgrowth, study day ([2]; sc, 60 mg/kg, 480 h): ~50 study day; AUC ([3]; iv, 20 mg/kg, read-out: AUCIV): 60.9 µM·h; AUC ([3]; iv, 30 mg/kg q14d i.v., xenograft study, read-out: AUC): 144 µM·h; AUC ([3]; iv, 60 mg/kg q14d i.v., xenograft study, read-out: AUC): 481 µM·h; AUC ([3]; oral, 20 mg/kg, read-out: AUCPO): 0.625 µM·h; bioavailability ([3]; po, read-out: oral bioavailability (F)): 1%
